Measured values from patent publication US5883243A, “Non-reducing saccharides, their preparations and uses” (Kabushiki Kaisha Hayashibara Seibutsu Kagaku Kenkyujo, priority 1997, dated 1999).

Assays:
[1] = system: Eubacterium aerofaciens ATCC 25986; experiment: Assimilation test by intestinal microorganism; assay type: cell-based; details: 0.5 w/v % saccharide in PYF broth, 37° C., 96 hours
[2] = system: Lactobacillus fermentum IFO 3959; experiment: Assimilation test by intestinal microorganism; assay type: cell-based; details: 0.5 w/v % saccharide in PYF broth, 37° C., 96 hours
[3] = system: Bacteroides uniformis JCM 5828; experiment: Assimilation test by intestinal microorganism; assay type: cell-based; details: 0.5 w/v % saccharide in PYF broth, 37° C., 96 hours
[4] = system: Bifidobacterium infantis JCM 1222; experiment: Assimilation test by intestinal microorganism; assay type: cell-based; details: 0.5 w/v % saccharide in PYF broth, 37° C., 96 hours
[5] = system: Clostridium butyricum JCM 1391; assay type: cell-based; details: 0.5 w/v % saccharide in PYF broth, 37° C., 96 hours
[6] = system: Bifidobacterium bifidum JCM 1255; experiment: Assimilation test by intestinal microorganism; assay type: cell-based; details: 0.5 w/v % saccharide in PYF broth, 37° C., 96 hours
[7] = system: Bacteroides vulgatus JCM 5826; experiment: Assimilation test by intestinal microorganism; assay type: cell-based; details: 0.5 w/v % saccharide in PYF broth, 37° C., 96 hours
[8] = system: Streptococcus sobrinus ATCC 27351; experiment: Acid formation by dental caries-inducing microorganisms; details: living wet cells, 0.02M saccharide, Stephen buffer pH 7.0, 37° C.; for pH at each fermentation time (min): 0: 0 min; for pH at each fermentation time (min): 5: 5 min; for pH at each fermentation time (min): 15: 15 min; for pH at each fermentation time (min): 30: 30 min; for pH at each fermentation time (min): 60: 60 min; for pH at each fermentation time (min): 90: 90 min
[9] = system: Streptococcus faecalis IAM 10065; experiment: Assimilation test by intestinal microorganism; assay type: cell-based; details: 0.5 w/v % saccharide in PYF broth, 37° C., 96 hours
[10] = system: Bifidobacterium longum JCM 1217; experiment: Assimilation test by intestinal microorganism; assay type: cell-based; details: 0.5 w/v % saccharide in PYF broth, 37° C., 96 hours
[11] = system: Bifidobacterium adolescentis JCM 1275; experiment: Assimilation test by intestinal microorganism; assay type: cell-based; details: 0.5 w/v % saccharide in PYF broth, 37° C., 96 hours
[12] = system: Peptostreptococcus prevotii ATCC 9321; experiment: Assimilation test by intestinal microorganism; assay type: cell-based; details: 0.5 w/v % saccharide in PYF broth, 37° C., 96 hours
[13] = system: Bifidobacterium breve JCM 1192; experiment: Assimilation test by intestinal microorganism; assay type: cell-based; details: 0.5 w/v % saccharide in PYF broth, 37° C., 96 hours
[14] = system: Clostridium perfringens JCM 3816; assay type: cell-based; details: 0.5 w/v % saccharide in PYF broth, 37° C., 96 hours
[15] = system: Lactobacillus plantarum IFO 3070; experiment: Assimilation test by intestinal microorganism; assay type: cell-based; details: 0.5 w/v % saccharide in PYF broth, 37° C., 96 hours
[16] = system: Bacteroides distasonis JCM 5825; experiment: Assimilation test by intestinal microorganism; assay type: cell-based; details: 0.5 w/v % saccharide in PYF broth, 37° C., 96 hours
[17] = system: Clostridium ramosum JCM 1298; experiment: Assimilation test by intestinal microorganism; assay type: cell-based; details: 0.5 w/v % saccharide in PYF broth, 37° C., 96 hours
[18] = system: Bifidobacterium animalis JCM 1190; experiment: Assimilation test by intestinal microorganism; assay type: cell-based; details: 0.5 w/v % saccharide in PYF broth, 37° C., 96 hours
[19] = system: crude glucosyltransferase specimen derived from Streptococcus sobrinus strain (ATCC 27351); experiment: Inhibition of insoluble glucan formation by glucosyltransferase from dental caries-inducing microorganism; assay type: biochemical; details: for Yield of non-adsorbed glucans / Yield of adsorbed glucans: sucrose plus test saccharide (one ml of one w/v % each), pH 6.8, 37° C., 16 hours; for Yield of non-adsorbed glucans: sucrose alone 923; for Yield of adsorbed glucans: sucrose alone 1,160
Experimental: To a mixture solution consisting of one ml of one w/v % sucrose solution, one ml of one w/v % of a test saccharide solution, and 1.5 ml of 0.1M phosphate buffer (pH 6.8) was added 0.5 ml solution containing a crude glucosyltransferase specimen in a total protein content of 10 mg, and the mixture solution was placed in a small test tube which was then fixed and slanted to give a grade 30 degrees and allowed to react at 37° C. for 16 hours. The reaction mixture was transferred gently to another test tube and mixed with a solution obtained by washing carefully with 4 ml water the remaining substances adhered to the inner walls of the small test tube, and the mixture solution was centrifuged to obtain a precipitate as a non-adsorbed glucan. The amounts of the adsorbed- and non-adsorbed glucans thus obtained were respectively quantified by the anthrone-sulfuric acid method, and the total amount of them was regarded as the amount of the formed insoluble glucans. As a control system, a reaction system using water in place of the test saccharide solution, i.e. a reaction system using sucrose as a saccharide, was provided.

[20] = system: Escherichia coli IFO 3301; experiment: Assimilation test by intestinal microorganism; assay type: cell-based; details: 0.5 w/v % saccharide in PYF broth, 37° C., 96 hours
[21] = Maillard reaction (coloration with glycine); assay type: physicochemical; details: 10 w/v % saccharide, one w/v % glycine, 50 mM phosphate buffer pH 7.0, 100° C., 90 min; 1-cm cell
[22] = system: Enzyme from small intestinal mucus membrane; details: enzymes of small intestinal mucus membranes
bifid bacteria = experiment: Assimilation test by intestinal microorganism, overall judgement; assay type: cell-based; details: results of Tables 4 and 5
Experimental: To evaluate the growth rate of and to judge the assimilability by the microorganisms, the resultant broth was diluted 5-fold, and the turbidity of the dilution was measured at a wavelength of 750 nm in a 1-cm light-path cell. […] The criteria were in Table 3, and the results were in Tables 4 and 5: […]

Structure (SMILES) | Judgement of assimilation (turbidity at a wavelength of 750 nm × 5) [1] | Judgement of assimilation (turbidity at a wavelength of 750 nm × 5) [2] | Judgement of assimilation (turbidity at a wavelength of 750 nm × 5) [3] | Judgement of assimilation (turbidity at a wavelength of 750 nm × 5) [4] | Judgement of assimilation (turbidity at a wavelength of 750 nm × 5) [5] | Judgement of assimilation (turbidity at a wavelength of 750 nm × 5) [6] | Judgement of assimilation (turbidity at a wavelength of 750 nm × 5) [7] | pH at each fermentation time (min): 0 [8] | pH at each fermentation time (min): 5 [8] | pH at each fermentation time (min): 15 [8] | pH at each fermentation time (min): 30 [8] | pH at each fermentation time (min): 60 [8] | pH at each fermentation time (min): 90 [8] | Judgement of assimilation (turbidity at a wavelength of 750 nm × 5) [9] | Judgement of assimilation (turbidity at a wavelength of 750 nm × 5) [10] | Judgement of assimilation (turbidity at a wavelength of 750 nm × 5) [11] | Judgement of assimilation (turbidity at a wavelength of 750 nm × 5) [12] | Judgement of assimilation (turbidity at a wavelength of 750 nm × 5) [13] | Judgement of assimilation (turbidity at a wavelength of 750 nm × 5) [15] | Judgement of assimilation (turbidity at a wavelength of 750 nm × 5) [16] | other results
OC[C@H]1O[C@H](O[C@H]2O[C@H](CO)[C@@H](O)[C@H](O)[C@H]2O)[C@H](O)[C@@H](O)[C@@H]1O [Trehalose, trehalose, reference compound] | - (Less than 0.1) | + (0.15 or higher but less than 0.2) | ++ (0.2 or higher but less than 0.3) | - (Less than 0.1) | +++ (0.3 or higher) | + (0.15 or higher but less than 0.2) | + (0.15 or higher but less than 0.2) | 7.0 | 6.7 | 5.3 | 4.7 | 4.3 | 4.2 | + (0.15 or higher but less than 0.2) | ++ (0.2 or higher but less than 0.3) | + (0.15 or higher but less than 0.2) | + (0.15 or higher but less than 0.2) | - (Less than 0.1) | ++ (0.2 or higher but less than 0.3) | ++ (0.2 or higher but less than 0.3) | Judgement of assimilation (turbidity at a wavelength of 750 nm × 5) [14]: +++ (0.3 or higher); Judgement of assimilation (turbidity at a wavelength of 750 nm × 5) [17]: + (0.15 or higher but less than 0.2); Judgement of assimilation (turbidity at a wavelength of 750 nm × 5) [18]: + (0.15 or higher but less than 0.2); Yield of non-adsorbed glucans [19]: 1,130 μg/ml; Yield of adsorbed glucans [19]: 772 µg/mL; Inhibitory percentage (%) on insoluble glucans' formation ([19]; sucrose plus test saccharide, versus sucrose alone): 8.7%; Judgement of assimilation (turbidity at a wavelength of 750 nm × 5) [20]: - (Less than 0.1); Coloration degree (at a wavelength of 480 nm) [21]: 0.007
OC[C@H]1O[C@H](OC[C@H]2O[C@H](OC[C@H]3O[C@H](O[C@H]4O[C@H](CO)[C@@H](O)[C@H](O)[C@H]4O)[C@H](O)[C@@H](O)[C@@H]3O)[C@H](O)[C@@H](O)[C@@H]2O)[C@H](O)[C@@H](O)[C@@H]1O [α-Isomaltotriosyl α-glucoside, O-α-D-glucopyranosyl-(1→6 )-O-α-D-glucopyranosyl-(1→6)-α-D-glucopyranosyl α-D-glucopyrandside] | - (Less than 0.1) | - (Less than 0.1) | - (Less than 0.1) | ++ (0.2 or higher but less than 0.3) | +++ (0.3 or higher) | ++ (0.2 or higher but less than 0.3) | - (Less than 0.1) | 7.0 | 7.0 | 6.9 | 6.9 | 6.9 | 6.9 | - (Less than 0.1) | +++ (0.3 or higher) | +++ (0.3 or higher) | ± (0.1 or higher but less than 0.15) | +++ (0.3 or higher) | - (Less than 0.1) | - (Less than 0.1) | Digestibility, judgement in words [22]: relatively-low in digestibility; Selective assimilability by bifid bacteria, in words (bifid bacteria): high in the selective assimilability by bifid bacteria; Judgement of assimilation (turbidity at a wavelength of 750 nm × 5) [17]: - (Less than 0.1); Judgement of assimilation (turbidity at a wavelength of 750 nm × 5) [18]: +++ (0.3 or higher); Yield of non-adsorbed glucans [19]: 269 µg/mL; Yield of adsorbed glucans [19]: 66 µg/mL; Judgement of assimilation (turbidity at a wavelength of 750 nm × 5) [20]: - (Less than 0.1); Coloration degree (at a wavelength of 480 nm) [21]: 0.019
